In patent publication US20250051338A1, “TYK2 DEGRADERS AND USES THEREOF” (Kymera Therapeutics, Inc., priority 2021, published 2025):

Tests used:
Assay type in all cases: cell-based
[1] = target: T1, TYK2 (Homo sapiens, UniProt P29597); experiment: TYK2 degradation MSD assay in human PBMC cells; parameters: endogenous in cells; host or cells: human PBMC; conditions: 4 to 24 hours incubation, read-out: TYK2 MSD DC50 rating in human PBMC
How it was run: (§1)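 MSD electrochemiluminescence readout of residual TYK2 in RIPA lysates after 4–24 h compound exposure at 37° C. Dosing: 9 concentrations, 1:3 steps, top 1 to 10 μM. DC50 fitted by four-parameter inhibitor vs. response regression.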

[2] = target: T1, TYK2; experiment: TYK2 degradation MSD assay in EBV-B cells; parameters: endogenous in cells; host or cells: EBV-B cells; conditions: 4 to 24 hours incubation, read-out: TYK2 MSD DC50 rating in EBV-B
How it was run: as §1

[3] = target: T1, TYK2; experiment: TYK2 degradation MSD assay in OCI-LY10 cells; parameters: endogenous in cells; host or cells: EBV-B cells; conditions: 4 to 24 hours incubation, read-out: TYK2 MSD DC50 rating in OCI-LY10
How it was run: as §1

T1 sequence (P29597 whole entry): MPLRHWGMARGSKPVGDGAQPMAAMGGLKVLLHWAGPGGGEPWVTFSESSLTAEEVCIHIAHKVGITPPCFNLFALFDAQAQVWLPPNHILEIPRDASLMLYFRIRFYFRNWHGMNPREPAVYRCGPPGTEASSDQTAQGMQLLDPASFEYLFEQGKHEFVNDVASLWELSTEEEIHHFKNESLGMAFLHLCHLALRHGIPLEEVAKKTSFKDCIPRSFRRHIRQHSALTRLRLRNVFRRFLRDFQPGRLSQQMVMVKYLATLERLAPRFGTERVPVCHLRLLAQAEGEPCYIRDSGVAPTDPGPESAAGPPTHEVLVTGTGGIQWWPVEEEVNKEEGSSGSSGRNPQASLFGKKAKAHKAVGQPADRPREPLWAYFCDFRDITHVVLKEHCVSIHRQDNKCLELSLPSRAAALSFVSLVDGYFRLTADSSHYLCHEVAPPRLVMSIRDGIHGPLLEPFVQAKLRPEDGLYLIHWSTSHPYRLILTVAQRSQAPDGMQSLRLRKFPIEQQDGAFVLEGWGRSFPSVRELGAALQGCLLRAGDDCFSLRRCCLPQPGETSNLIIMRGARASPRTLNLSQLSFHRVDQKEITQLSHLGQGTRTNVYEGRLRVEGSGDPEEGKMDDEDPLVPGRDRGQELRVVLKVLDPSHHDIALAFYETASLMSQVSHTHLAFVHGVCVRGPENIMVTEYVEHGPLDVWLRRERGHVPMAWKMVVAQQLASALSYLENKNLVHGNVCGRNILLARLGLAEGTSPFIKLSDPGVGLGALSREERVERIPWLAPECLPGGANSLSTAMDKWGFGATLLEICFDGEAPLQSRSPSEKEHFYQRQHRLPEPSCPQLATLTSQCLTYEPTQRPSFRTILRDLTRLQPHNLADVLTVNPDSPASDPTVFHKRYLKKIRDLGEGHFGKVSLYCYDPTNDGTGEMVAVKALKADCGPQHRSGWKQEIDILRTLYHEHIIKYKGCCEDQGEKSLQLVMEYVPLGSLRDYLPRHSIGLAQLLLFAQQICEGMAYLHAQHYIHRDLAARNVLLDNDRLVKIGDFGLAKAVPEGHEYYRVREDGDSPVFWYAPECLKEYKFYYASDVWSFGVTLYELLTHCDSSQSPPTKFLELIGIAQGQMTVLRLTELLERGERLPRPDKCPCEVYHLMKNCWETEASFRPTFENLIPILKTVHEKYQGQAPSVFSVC

DC50 [1]	DC50 [2]	DC50 [3]	Structure (SMILES)
> 100 nM	> 100 nM	10 to 100 nM	CNc1cc(N2CCc3c(-c4ccc(CN5CCN(c6ccc(-c7cccc8c7n(C)c(=O)n8C7CCC(=O)NC7=O)cc6)CC5)cn4)cccc32)nn2c(C(=O)N[C@@H]3C[C@@H]3F)cnc12 (stereo partly drawn) [Example K494]
> 100 nM	> 100 nM	< 1 nM	CNc1cc(Nc2cccn(-c3ccc(CN4CCN(c5ccc(-c6ccc7c(c6)n(C)c(=O)n7C6CCC(=O)NC6=O)cc5)CC4)cn3)c2=O)nn2c(C(=O)N[C@@H]3C[C@@H]3F)cnc12 (stereo partly drawn) [Example K495]
> 100 nM	> 100 nM	1 to 10 nM	CNC1=CC(Nc2cccc(-c3ccc(CN4CCN(CC5CCN(C(=O)c6ccc(Cl)c(N7CCC(=O)NC7=O)c6)CC5)CC4)cn3)c2)=NC2C(C(=O)N[C@@H]3C[C@@H]3F)=CN=C12 (stereo partly drawn) [Example K496]
> 100 nM	< 1 nM	< 1 nM	CNc1cc(N2CCc3c(-c4ccc(CN5CC6(CCN(C(=O)c7ccc(Cl)c(N8CCC(=O)NC8=O)c7)CC6)C5)cn4)cccc32)nn2c(C(=O)N[C@@H]3C[C@@H]3F)cnc12 [Example K498]
> 100 nM	> 100 nM	> 100 nM	CNc1cc(Nc2cccc(-c3ccc(CN4CCN(c5ccc(-c6ccc7c(c6)n(C)c(=O)n7C6CCC(=O)NC6=O)cc5)CC4)cn3)c2)nn2c(C(=O)N[C@@H]3C[C@@H]3F)cnc12 (stereo partly drawn) [Example K499]
> 100 nM	> 100 nM	> 100 nM	CNc1cc(Nc2cccc(-c3ccc(CN4CC5(CCN(c6ccc(C7CCC(=O)NC7=O)cc6)CC5)C4)cn3)c2)nn2c(C(=O)N[C@@H]3C[C@@H]3F)cnc12 (stereo partly drawn) [Example K500]
> 100 nM	> 100 nM	10 to 100 nM	CNc1cc(N2CCCc3c(-c4ccc(CC5CCC(c6ccc(-c7ccc8c(c7)n(C)c(=O)n8C7CCC(=O)NC7=O)cc6)CC5)cn4)cccc32)nn2c(C(=O)N[C@@H]3C[C@@H]3F)cnc12 (stereo partly drawn) [Example K501]
> 100 nM	> 100 nM	1 to 10 nM	Cc1cc(Nc2cccc(-c3ccc(CN4CCN(c5ccc(-c6ccc7c(c6)n(C)c(=O)n7C6CCC(=O)NC6=O)cc5)CC4)cn3)c2)nn2c(C(=O)N[C@@H]3C[C@@H]3F)cnc12 (stereo partly drawn) [Example K502]
> 100 nM	> 100 nM	> 100 nM	CNc1cc(Nc2cccc(N3CCC(CN4CCN(c5cccc6c(C7CCC(=O)NC7=O)cncc56)CC4)CC3)c2)nn2c(C(=O)N[C@@H]3C[C@@H]3F)cnc12 (stereo partly drawn) [Example K503]
> 100 nM	< 1 nM	> 100 nM	CNc1cc(Nc2cccc(-c3ccc(CN4CCN(CCCOc5ccc(C6CCC(=O)NC6=O)cc5)CC4)cn3)c2)nn2c(C(=O)N[C@@H]3C[C@@H]3F)cnc12 (stereo partly drawn) [Example K504]
> 100 nM	10 to 100 nM	1 to 10 nM	CNc1cc(N2CCc3c(-c4ccc(CN5CCN(c6ccc(-c7ccc8c(c7)n(C)c(=O)n8C7CCC(=O)NC7=O)cc6)CC5)cn4)cccc32)nn2c(C(=O)N[C@@H]3C[C@@H]3F)cnc12 (stereo partly drawn) [Example K505]
> 100 nM	10 to 100 nM	1 to 10 nM	CNc1cc(Nc2cccc(-c3ccc(CN4CC5(CCN(C(=O)c6ccc(Cl)c(N7CCC(=O)NC7=O)c6)CC5)C4)cn3)c2)nn2c(C(=O)N[C@@H]3C[C@@H]3F)cnc12 [Example K506]
> 100 nM	1 to 10 nM	< 1 nM	CNc1cc(Nc2cccc(-c3ccc(CN4CCC(CCc5cccc6c5n(C)c(=O)n6C5CCC(=O)NC5=O)CC4)cn3)c2)nn2c(C(=O)N[C@@H]3C[C@@H]3F)cnc12 (stereo partly drawn) [Example K507]
> 100 nM	1 to 10 nM	< 1 nM	CNc1cc(Nc2cccc(-c3ccc(CN4CCN(c5ccc(-c6ccc7c(c6)n(C)c(=O)n7C6CCC(=O)NC6=O)cc5)CC4)cn3)c2)nc2c(C(=O)N[C@@H]3C[C@@H]3F)cnn12 (stereo partly drawn) [Example K508]
> 100 nM	1 to 10 nM	1 to 10 nM	Cn1c(=O)n(C2CCC(=O)NC2=O)c2ccc(-c3ccc(N4CCN(Cc5ccc(-c6cccc(Nc7cc(NC8CC8)n8ncc(C(=O)N[C@@H]9C[C@@H]9F)c8n7)c6)nc5)CC4)cc3)cc21 (stereo partly drawn) [Example K509]
> 100 nM	1 to 10 nM	< 1 nM	CNc1cc(Nc2cccc(-c3ccc(CN4CC5(CCN(c6cccc7c6n(C)c(=O)n7C6CCC(=O)NC6=O)CC5)C4)cn3)c2)nn2c(C(=O)N[C@@H]3C[C@@H]3F)cnc12 (stereo partly drawn) [Example K510]
> 100 nM	< 1 nM	1 to 10 nM	CNC1=CC(Nc2cccc(-c3ccc(CN4CC5(CCN(c6cccc7c(C8CCC(=O)NC8=O)cccc67)CC5)C4)cn3)c2)=NC2C(C(=O)N[C@@H]3C[C@@H]3F)=CN=C12 (stereo partly drawn) [Example K512]

The next lines start with the molecule.

Structure (SMILES)	DC50 [1]	DC50 [2]	DC50 [3]
CNc1cc(Nc2cccc(N3CCN(CC4CCN(c5ccc(-c6ccc7c(c6)n(C)c(=O)n7C6CCC(=O)NC6=O)cc5)CC4)CC3)c2)nn2c(C(=O)N[C@@H]3C[C@@H]3F)cnc12 (stereo partly drawn) [Example K466]	> 100 nM	< 1 nM	> 100 nM
CNc1cc(Nc2cccc(-c3ccc(CN4CCN(c5cccc6c(N7CCC(=O)NC7=O)cncc56)CC4)cn3)c2)nn2c(C(=O)N[C@@H]3C[C@@H]3F)cnc12 [Example K467]	> 100 nM	10 to 100 nM	> 100 nM
O=C1CCN(c2cnc3cc(CCOCCOCCOCCOCCNc4cc(Nc5cccn(-c6ccccn6)c5=O)nn5c(C(=O)N[C@@H]6C[C@@H]6F)cnc45)ccn23)C(=O)N1 [Example K468]	10 to 100 nM	> 100 nM	> 100 nM
CNc1cc(Nc2cccc(-c3ccc(CN4CCN(c5ccc(-c6ccc7c(c6)n(C)c(=O)n7C6CCC(=O)NC6=O)cc5)CC4)cn3)c2OC)nn2c(C(=O)N[C@@H]3C[C@@H]3F)cnc12 (stereo partly drawn) [Example K479]	> 100 nM	< 1 nM	< 1 nM
CNc1cc(-c2ccc(-c3ccc(CN4CCC(N5CC(N6CCN(c7ccc8c(c7)n(C)c(=O)n8C7CCC(=O)NC7=O)CC6)C5)CC4)cn3)cc2)nn2c(C(=O)N[C@@H]3C[C@@H]3F)cnc12 (stereo partly drawn) [Example K480]	> 100 nM	> 100 nM	< 1 nM
CNc1cc(N(C)c2cccc(-c3ccc(CN4CCN(c5ccc(-c6ccc7c(c6)n(C)c(=O)n7C6CCC(=O)NC6=O)cc5)CC4)cn3)c2)nn2c(C(=O)N[C@@H]3C[C@@H]3F)cnc12 (stereo partly drawn) [Example K481]	> 100 nM	> 100 nM	> 100 nM
CNc1cc(Nc2cccc(-c3ccc(CN4CCN(c5ccc(-c6ccc7c(c6)n(C)c(=O)n7C6CCC(=O)NC6=O)cc5)CC4)cn3)c2)nn2c(C(=O)NC3CC3OC)cnc12 (stereo not drawn) [Example K482]	> 100 nM	> 100 nM	1 to 10 nM
CNc1cc(Nc2cccc(-c3ccc(CN4CCN(c5ccc(-c6ccc7c(c6)n(C)c(=O)n7C6CCC(=O)NC6=O)cc5)CC4)cn3)c2)nn2c(C(=O)NC3CCC3)cnc12 (stereo not drawn) [Example K483]	> 100 nM	> 100 nM	1 to 10 nM
Cn1c(=O)n(C2CCC(=O)NC2=O)c2ccc(-c3ccc(N4CCN(Cc5ccc(-c6cccc(Nc7cc(C8CC8)c8ncc(C(=O)N[C@@H]9C[C@@H]9F)n8n7)c6)nc5)CC4)cc3)cc21 (stereo partly drawn) [Example K484]	> 100 nM	> 100 nM	> 100 nM
CNc1cc(Nc2cccc(CN3CCN(c4ccc(-c5ccc6c(c5)n(C)c(=O)n6C5CCC(=O)NC5=O)cc4)CC3)c2)nn2c(C(=O)N[C@@H]3C[C@@H]3F)cnc12 (stereo partly drawn) [Example K486]	> 100 nM	> 100 nM	< 1 nM
CNc1cc(Nc2cccc(-c3ccc(CN4CCC(N5CC(N6CCN(c7ccc8c(c7)n(C)c(=O)n8C7CCC(=O)NC7=O)CC6)C5)CC4)cn3)c2OC)nn2c(C(=O)N[C@@H]3C[C@@H]3F)cnc12 (stereo partly drawn) [Example K487]	> 100 nM	> 100 nM	< 1 nM
CNc1cc(Nc2cccc(-c3ccc(CN4CCN(c5ccc(-c6cccc7c6n(C)c(=O)n7C6CCC(=O)NC6=O)cc5)CC4)cn3)c2OC)nn2c(C(=O)N[C@@H]3C[C@@H]3F)cnc12 (stereo partly drawn) [Example K488]	> 100 nM	> 100 nM	1 to 10 nM
CNc1cc(Nc2cccc(-c3ccc(CN4CCN(C(=O)c5ccc(Cl)c(N6CCC(=O)NC6=O)c5)CC4)cn3)c2OC)nn2c(C(=O)N[C@@H]3C[C@@H]3F)cnc12 [Example K489]	> 100 nM	> 100 nM	> 100 nM
CNc1cc(Nc2cccc(CN3CCC(CN4CCN(c5ccc6c(c5)n(C)c(=O)n6C5CCC(=O)NC5=O)CC4)CC3)c2)nn2c(C(=O)N[C@@H]3C[C@@H]3F)cnc12 (stereo partly drawn) [Example K490]	> 100 nM	> 100 nM	< 1 nM
CNc1cc(N2CCOc3c(-c4ccc(CN5CCN(c6ccc(-c7ccc8c(c7)n(C)c(=O)n8C7CCC(=O)NC7=O)cc6)CC5)cn4)cccc32)nn2c(C(=O)N[C@@H]3C[C@@H]3F)cnc12 (stereo partly drawn) [Example K491]	> 100 nM	> 100 nM	10 to 100 nM
CNc1cc(-c2ccc(-c3ccc(CN4CCN(c5ccc(-c6ccc7c(c6)n(C)c(=O)n7C6CCC(=O)NC6=O)cc5)CC4)cc3)c3nccn23)nn2c(C(=O)N[C@@H]3C[C@@H]3C)cnc12 (stereo partly drawn) [Example K492]	> 100 nM	> 100 nM	10 to 100 nM
CNc1cc(-c2ccc(-c3ccc(CN4CCC(CN5CCN(c6ccc7c(c6)n(C)c(=O)n7C6CCC(=O)NC6=O)CC5)CC4)cn3)cc2)nn2c(C(=O)N[C@@H]3C[C@@H]3F)cnc12 (stereo partly drawn) [Example K493]	> 100 nM	> 100 nM	1 to 10 nM
